This note sets out measurements from patent US5330992A, “1-cyclopropyl-4-pyridyl-quinolinones” (priority 1992, dated 1994).

In series [1] the test system is adriamycin-resistant subline Mam16C/ADR. The series is described as follows: In vivo antitumor assay, Mam16C/ADR. Details: species or system mouse. As to conditions: drug route iv, qd 1 bid 2,3. The source says: (§1) Mice: Inbred: C3H/He and NCR-nu; and Hybrids: B6D2Fl (C57BL/6 females X DBA/2 males, CD2Fl (Balb/c females X DBS/2 males) and B6x C3fl (C57BL/6 x C3H) were bred at Wayne State University from strained obtained from the Frederick Cancer Research Facility, Frederick, Md. or purchased from commercial suppliers.
(§2) Tumors: Murine Tumor: P388 and an adriamycin-resistant (ADR) subline P388/ADR leukemia and the following transplantable solid tumors of mice were used for in Vivo testing: B16 melanoma (B16), pancreatic ductal adenocarcinoma No. 03 (Panc 03), colon adenocarcinoma No. 38 (colo 38), mammary ductal adenocarcinoma No. 16/C (Mam16) and an adriamycin-resistantsubline Mam16C/ADR. […]
(§3) Quantitative end points used assess antitumor activity included % Increased Life Span (% ILS), Tumor Cell Kill (Log10 kill), and Tumor Growth Inhibition (T/C). […]
(§4) Tumors were measured with a caliper once or twice weekly (as needed) until either tumors exceeded 1600 mg or cure was assured. […] When the control group tumors reached approximately 750-1500 mg in size (median of group), the median tumor weight of each group was determined (including zeros). […] The % T/C was calculated from the following formula for solid murine tumor models: [formula] where T and C are median tumor weights of the treatment and control groups, respectively. […]

Series [2] can be described thus: In vivo antitumor assay, Mam16C/ADR. Also on record: species or system mouse. As to conditions: mouse, in vivo, drug route iv, qd 1 bid 2,3.
Excerpt: as §1, §2, §3, §4

Series [3] addresses T1, human topoisomerase II (Homo sapiens, UniProt P11388).
T1 construct: Topo II was purified from late log phase suspension cultures of HeLa WIS; endogenous in cells; host or cells: HeLa WIS suspension cultures, late log phase (enzyme purified from the cells)
The series is described as follows: Mammalian Topoisomerase II Inhibition Assay (DNA-topo II complex formation). It counts as biochemical. As to conditions: EC50 = concentration with activity equal to EC50 of reference mAMSA; read-out: TopoII Inh. EC50. Here is the method: Mammalian Topoisomerase II Inhibition Assay Procedure
The assay quantitates the amount of topo II covalently complexed by DNA at equilibrium during a topo II reaction. This assay determines the potential of a compound to stabilize this complex, which potential is closely related to the cytotoxicity of the compound.
Assays (in duplicate) were assembled at 4° C.
4 ng 3' end labeled (^32 P) pBR322 DNA (10^7 DMP/μg)
The assay mix including the test compound was incubated for 20 minutes at 37° C. The reaction was terminated at 37° C. by the addition of 3 μl 10% SDS followed by the addition of 266 μl 10 mM Tris-Cl pH 7.5, 20 μg/ml BSA, 20 μg/ml calf thymus DNA, 1% SDS.
A SDS/protein precipitate was formed by the addition of 28 μl 2.5M KCl followed by chilling on ice for a minimum of 10 minutes. The precipitate was collected and washed with a Brandell cell harvester on a GFB glass fiber filter membrane as follows. The contents of the assay tube were drawn up into the harvester. The tube was then rinsed 7X with 10 mM Tris-Cl pH 7.5, 1 mM EDTA and 100 mM KCl. […] After drying, CPM was determined by liquid scintillation counting with 5 ml Biofluor (NEN Research Products) or Readisafe (Beckman Instruments Inc.) cocktail.
This solution then was diluted 1/5 into water and serially thereafter in either 0.02N sodium hydroxide or 0.04N hydrogen chloride, respectively. The stock solution and serial dilution of the test compound was stored at -20° C. prior to testing.
Screening of test compound--As an initial screen, the test compound was tested at a final concentration of 2, 20 and 200 μg/ml. The compound was then retested at a range of concentrations (usually 2-3X steps) bridging their approximate EC50 's, as estimated by the prescreen.
Controls--A solvent control which indicates the base level of topo II-DNA complex formed in the absence of the test compound was included in each test. A control, in which topo II was omitted, was included for each test compound at the highest drug concentration tested.
Reference Agent--A dose response curve with mAMSA at 0.01, 0.08, 0.16, 0.32, 1.0 and 10 μg/ml was included in each test.
The maximal DNA-topo II complex formed is taken as that equal to that formed at the nearly saturating dose of mAMSA (10 μg/ml).

T1 sequence (P11388 whole entry): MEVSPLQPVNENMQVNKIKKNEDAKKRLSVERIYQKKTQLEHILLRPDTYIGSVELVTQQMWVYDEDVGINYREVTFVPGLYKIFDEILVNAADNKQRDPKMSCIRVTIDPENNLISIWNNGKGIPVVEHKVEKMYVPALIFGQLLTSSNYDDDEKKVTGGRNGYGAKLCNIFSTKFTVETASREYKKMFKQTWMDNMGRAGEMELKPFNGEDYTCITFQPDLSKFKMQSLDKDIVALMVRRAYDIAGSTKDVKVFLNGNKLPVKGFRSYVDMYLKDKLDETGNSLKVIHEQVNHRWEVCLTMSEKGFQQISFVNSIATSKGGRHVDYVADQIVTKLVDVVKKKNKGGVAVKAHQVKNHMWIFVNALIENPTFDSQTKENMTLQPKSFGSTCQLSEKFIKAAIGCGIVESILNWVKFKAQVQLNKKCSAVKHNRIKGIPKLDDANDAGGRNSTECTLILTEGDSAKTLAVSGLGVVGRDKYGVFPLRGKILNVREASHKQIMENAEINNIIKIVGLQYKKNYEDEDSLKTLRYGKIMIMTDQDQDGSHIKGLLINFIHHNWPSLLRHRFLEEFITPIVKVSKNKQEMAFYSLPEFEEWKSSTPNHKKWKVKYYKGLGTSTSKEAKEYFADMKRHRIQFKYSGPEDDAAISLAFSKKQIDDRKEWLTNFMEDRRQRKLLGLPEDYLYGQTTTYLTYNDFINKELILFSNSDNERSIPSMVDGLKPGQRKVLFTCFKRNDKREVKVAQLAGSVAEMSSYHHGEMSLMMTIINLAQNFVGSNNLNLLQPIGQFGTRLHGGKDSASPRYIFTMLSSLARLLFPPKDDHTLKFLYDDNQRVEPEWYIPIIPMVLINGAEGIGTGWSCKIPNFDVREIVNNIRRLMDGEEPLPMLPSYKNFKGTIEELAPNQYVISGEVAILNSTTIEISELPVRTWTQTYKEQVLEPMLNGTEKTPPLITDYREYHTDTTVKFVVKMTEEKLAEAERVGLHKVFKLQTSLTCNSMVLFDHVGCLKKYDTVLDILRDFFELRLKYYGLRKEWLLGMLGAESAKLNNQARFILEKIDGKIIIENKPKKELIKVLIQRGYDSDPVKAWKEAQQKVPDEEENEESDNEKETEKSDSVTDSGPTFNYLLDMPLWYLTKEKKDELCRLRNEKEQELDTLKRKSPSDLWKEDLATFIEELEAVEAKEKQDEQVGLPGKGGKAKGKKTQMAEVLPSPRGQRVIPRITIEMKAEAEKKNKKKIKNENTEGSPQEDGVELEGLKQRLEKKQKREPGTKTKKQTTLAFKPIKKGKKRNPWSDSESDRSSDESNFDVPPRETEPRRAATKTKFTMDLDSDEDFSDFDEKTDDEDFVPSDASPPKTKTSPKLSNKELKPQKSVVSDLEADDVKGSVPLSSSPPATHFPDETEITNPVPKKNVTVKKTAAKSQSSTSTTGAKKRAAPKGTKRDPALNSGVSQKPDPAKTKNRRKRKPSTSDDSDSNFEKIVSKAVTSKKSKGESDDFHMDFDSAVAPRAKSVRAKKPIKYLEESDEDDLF

In series [1], `Cc1cc(-c2c(F)cc3c(=O)c(Cc4c(O)cccc4O)cn(C4CC4)c3c2F)cc(C)n1` [Example 26, 1-Cyclopropyl-6,8-difluoro-7-[2,6-dimethyl-4-pyridinyl]-3-[2,6-dihydroxyphenylmethyl]-1,4-dihydroquinoline-4-one] displayed a T/C % of 71%. In series [2], the MTD worked out at 30 mg/kg. In addition, in series [3], the EC50 – broadly, the concentration needed to bring the measured effect to its halfway point – worked out at 96 nM.
On to `Cc1cc(-c2c(F)cc3c(=O)c(Cc4ccccc4O)cn(C4CC4)c3c2F)cc(C)n1` [Example 30], for which, in series [3], the EC50 is 330 nM.
